What was measured:
[1] = target: T1, MBP-HTT(1-89)Q46-His(6×) (Exon1-Q46) protein aggregates (Homo sapiens, UniProt P42858, INS38QQQQQQQQQQQQQQQQQQQQQQQQQ); assay: Exon1-Q46 radioligand binding assay (RBA); conditions: aggregated Exon1-Q46 1 μM; 0.3 nM ligand [3H3-methyl]-5-((5-methoxypyridin-2-yl)methoxy)-2-(pyrazin-2-yl)benzo[d]oxazole; 60 minutes at 37° C.; read-out: Potency Range (IC50)
T1 construct: MBP-HTT(1-89)Q46-His(6×); His(6×) (C); made in house
Description: Exon1-Q46 Radioligand Binding Assay
For radioligand binding assays (RBA) MBP-HTT(1-89)Q46-His(6×) (“Exon1-Q46”) protein was generated based on a previous publication (Scherzinger et al. Cell, Vol. 90, 549-558, Aug. 8, 1997). For experiments 30 μM MBP-Exon1-Q46 was incubated with 150 μg/mL thrombin in assay buffer (150 mM NaCl, 50 mM Tris pH 8.0) and 2 mM CaCl2 for 16 hours at 37° C. Aggregated Exon1-Q46 was pelleted by centrifugation for 5 minutes at 13,000 rpm in a bench top centrifuge and re-dissolved in the same volume of assay buffer. Test compounds were prepared by titration in DMSO at 11 concentrations from 63 μM to 2 nM. For the RBA, Exon1-Q46 protein aggregates and test compounds were pre-incubated in assay buffer for 20 minutes at room temperature, in 100 μL/well in a 96-well plate (pp, round bottom). Then, ligand was added in 50 μL/well and incubated for 60 minutes at 37° C. Final assay concentrations were 1 μM to 30 pM test compound, 1 μM Exon1-Q46 protein (equivalent monomer concentration) and 0.3 nM ligand [^3H3-methyl]-5-((5-methoxypyridin-2-yl)methoxy)-2-(pyrazin-2-yl)benzo[d]oxazole. Samples were transferred onto GF/B filter plates and washed 2× with 200 μL PBS using a Filtermate Harvester. After drying filter plates for 1 hour at 55° C., the back of the plates were sealed with foil and 30 μL/well scintillation fluid (Packard MicroScint 40) added, incubated for 15 minutes in the dark and counted in a MicroBeta reader. For analysis, replicate data from independent assay plates were normalized towards 0% and 100% inhibition using control wells of vehicle (0% inhibition) and 1 μM unlabelled [^3H3-methyl]-5-((5-methoxypyridin-2-yl)methoxy)-2-(pyrazin-2-yl)benzo[d]oxazole (100% inhibition). IC50 values were determined with a sigmoidal inhibition model with four variables (top, bottom, slope, IC50) in a global fit using the normalized replicate data.
The results for various example compounds were as provided in the table below (+++<100 nM; ++100−500 nM; +>500 nM; ND: not determined): […]

[2] = Unbound brain fraction (fu,brain) in mouse brain by equilibrium dialysis; type: in vitro ADME; conditions: 20% mouse brain homogenate, 5 μM, equilibrium dialysis 6 h at 37° C., average of triplicate
Description: Compounds were tested for unbounded brain fraction (or free fraction in brain, fu,brain). It is an accepted standard in the CNS PET imaging field that compounds with low unbound fraction in brain (<5%) likely have high non-specific binding background that is undesirable for the detection of target binding. As a result, fu,brain is an important property in the design of PET ligands for brain imaging [see Zhang et al., Design and selection parameters to accelerate the discovery of novel central nervous system positron emission tomography (PET) ligands and their application in the development of a novel phosphodiesterase 2A PET ligand. J Med Chem 2013, 56 (11), 4568-79; Liu et al., Imaging Mutant Huntingtin Aggregates: Development of a Potential PET Ligand. J Med Chem 2020, 63 (15), 8608-8633].
Determining fu,brain in Mouse Brain by Equilibrium Dialysis. Dialysis membranes (12-14 kDa) (HTDialysis, Connecticut) were soaked in phosphate buffer (10 mM potassium phosphate and 0.8% sodium chloride buffer, pH 7.4 at 37° C.) for a minimum of 1 h, at this time ethanol was added (final concentration of 20% v/v) and membranes continued to soak for 30 min Mouse brain tissue was diluted in phosphate buffer in a […] (w/v) and homogenised using a Precellys 24 (Stretton Scientific, UK) to achieve a final concentration of 20% brain homogenate.
Test compounds prepared as DMSO stocks at 0.5 mM are diluted into brain homogenate to achieve 5 μM final substrate concentration (1% DMSO) and a t=0 sample was prepared by sampling 50 μL of into 400 μL of quench solution (Acetonitrile containing 0.1% formic acid and sulfisoxazole/tolbutamide/imipramine/labetalol 200 nM). Samples were matrix matched with the addition of 50 μL of assay buffer. The HTDialysis Teflon blocks (HTDialysis, Connecticut) were assembled with pre-soaked membrane between each receiver and donor well and clamped in the stainless steel pressure plate (HTDialysis, Connecticut). The lower compartment (acceptor side) was dosed with 120 μL of buffer and the upper compartment (donor side) was dosed with 120 μL of compound in homogenate. All test compounds and controls were completed in triplicate. The HT dialysis plate was sealed and incubated for 6 h at 37° C. shaking at 250 rpm.
Following the incubation, 50 μL of sample was removed from all donor and acceptor wells and transferred into a quench plate containing 400 μL of quench solution. All samples were matrix matched with 50 μL of the alternate blank matrix. Analytical samples were diluted 1:1 with water using the Janus Robot and analysed by LC-MS/MS.
Peak areas of donor and acceptor compartments were compared to determine percent unbound (% fu) and the average of triplicate measurements was reported. Reference T0 sample was used to calculate sample recovery (%). Control compounds were compared with historic and literature values to ensure assay functionality.

T1 sequence (P42858 with tags, fused parts or gaps with the stated changes): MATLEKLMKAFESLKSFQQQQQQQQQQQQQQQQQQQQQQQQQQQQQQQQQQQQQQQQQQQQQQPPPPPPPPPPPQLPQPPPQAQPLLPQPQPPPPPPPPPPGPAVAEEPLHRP

IC50 [1] | Mean Free Brain Fraction (%) [2] | SMILES
< 100 nM | 2.7% | Cn1nc(N2Cc3cc(OCc4cc(Cl)c(F)cn4)ccc3C2=O)ccc1=O [Compound 2-3, 5-[(4-Chloro-5-fluoropyridin-2-yl)methoxy]-2-(1-methyl-6-oxo-1,6-dihydropyridazin-3-yl)-2,3-dihydro-1H-isoindol-1-one]
< 100 nM | 9.7% | COc1cc(COc2ccc3c(c2)CN(c2ccc(=O)n(C)n2)C3=O)ncc1F [Compound 3-1, 5-[(5-Fluoro-4-methoxypyridin-2-yl)methoxy]-2-(1-methyl-6-oxo-1,6-di-hydropyridazin-3-yl)-2,3-dihydro-1H-isoindol-1-one]
< 100 nM | 11.3% | COc1ccc(COc2ccc3c(c2)CN(c2ccc(=O)[nH]n2)C3=O)nc1 [Compound 6-1, 5-[(5-Methoxypyridin-2-yl)methoxy]-2-(6-oxo-1,6-dihydropyridazin-3-yl)-2,3-dihydro-1H-isoindol-1-one]
< 100 nM | 7.4% | COc1ccc(COc2ccc3c(c2)CN(c2ccc(=O)n(CF)n2)C3=O)nc1 [Compound 8-1, 2-(1-(Fluoromethyl)-6-oxo-1,6-dihydropyridazin-3-yl)-5-((5-methoxypyridin-2-yl)methoxy)isoindolin-1-one]
< 100 nM | 9.0% | COc1ccc(COc2ccc3c(c2)CN(c2ccc(=O)n(CCF)n2)C3=O)nc1 [Compound 8-2, 2-[1-(2-Fluoroethyl)-6-oxo-1,6-dihydropyridazin-3-yl]-5-[(5-methoxypyridin-2-yl)methoxy]-2,3-dihydro-1H-isoindol-1-one]
< 100 nM | 6.7% | O=C1c2ccc(OCc3ccc(F)cn3)cc2CN1c1ccc(=O)[nH]n1 [Compound 9-1, 5-[(5-Fluoro-2-pyridyl)methoxy]-2-(6-oxo-1H-pyridazin-3-yl)isoindolin-1-one]
< 100 nM | 5.2% | COc1cc(COc2ccc3c(c2)CN(c2ccc(=O)[nH]n2)C3=O)ncc1F [Compound 9-3, 5-((5-Fluoro-4-methoxypyridin-2-yl)methoxy)-2-(6-oxo-1,6-dihydropyridazin-3-yl)isoindolin-1-one]
< 100 nM | 14.3% | COc1ccc(COc2cc(F)c3c(c2)CN(c2ccc(=O)n(C)n2)C3=O)nc1 [Compound 10-1, 7-Fluoro-5-[(5-methoxypyridin-2-yl)methoxy]-2-(1-methyl-6-oxo-1,6-di-hydropyridazin-3-yl)-2,3-dihydro-1H-isoindol-1-one]
< 100 nM | 9.5% | COc1ccc(COc2cc(F)c3c(c2)CN(c2ccc(=O)[nH]n2)C3=O)nc1 [Compound 10-2, 7-Fluoro-5-[(5-methoxypyridin-2-yl)methoxy]-2-(6-oxo-1,6-dihydropyridazin-3-yl)-2,3-dihydro-1H-isoindol-1-one]
< 100 nM | 3.2% | COc1ccc2c(c1)CN(c1ccc(OCc3cccnc3)nc1)C2=O [Compound 11-1, 5-Methoxy-2-{6-[(pyridin-3-yl)methoxy]pyridin-3-yl}-2,3-dihydro-1H-isoindol-1-one]
< 100 nM | 7.1% | COc1ccc(COc2cc3c(cc2F)C(=O)N(c2ccc(=O)n(C)n2)C3)nc1 [Compound 12-1, 6-Fluoro-5-[(5-methoxypyridin-2-yl)methoxy]-2-(1-methyl-6-oxo-1,6-dihydropyridazin-3-yl)-2,3-dihydro-1H-isoindol-1-one]
< 100 nM | 5.3% | COc1ccc(COc2ccc3c(c2F)CN(c2ccc(=O)n(C)n2)C3=O)nc1 [Compound 12-2, 4-Fluoro-5-[(5-methoxypyridin-2-yl)methoxy]-2-(1-methyl-6-oxo-1,6-dihydropyridazin-3-yl)-2,3-dihydro-1H-isoindol-1-one]
< 100 nM | 5.4% | COc1ccc(COc2cc(F)c3c(c2)C(=O)N(c2ccc(=O)n(C)n2)C3)nc1 [Compound 12-3, 4-Fluoro-6-[(5-methoxypyridin-2-yl)methoxy]-2-(1-methyl-6-oxo-1,6-dihydropyridazin-3-yl)-2,3-dihydro-1H-isoindol-1-one]
< 100 nM | 9.8% | COc1ccc(COc2cc3c(cc2F)CN(c2ccc(=O)n(C)n2)C3=O)nc1 [Compound 12-4, 5-Fluoro-6-[(5-methoxypyridin-2-yl)methoxy]-2-(1-methyl-6-oxo-1,6-dihydropyridazin-3-yl)-2,3-dihydro-1H-isoindol-1-one]
< 100 nM | 37.0% | COc1ccc(COc2cnc3c(c2)CN(c2ccc(=O)n(C)n2)C3=O)nc1 [Compound 12-5, 6-{3-[(5-Methoxypyridin-2-yl)methoxy]-7-oxo-5H,6H,7H-pyrrolo[3,4-b]pyridin-6-yl}-2-methyl-2,3-dihydropyridazin-3-one]
< 100 nM | 50.0% | Cn1nc(N2Cc3cc(OCc4ccc(OCCF)cn4)cnc3C2=O)ccc1=O [Compound 12-6, 6-(3-{[5-(2-Fluoroethoxy)pyridin-2-yl]methoxy}-7-oxo-5H,6H,7H-pyrrolo[3,4-b]pyridin-6-yl)-2-methyl-2,3-dihydropyridazin-3-one]
< 100 nM | 67.8% | Cn1nc(N2Cc3cc(OCc4ccc(F)cn4)cnc3C2=O)ccc1=O [Compound 12-7, 6-{3-[(5-Fluoropyridin-2-yl)methoxy]-7-oxo-5H,6H,7H-pyrrolo[3,4-b]pyridin-6-yl}-2-methyl-2,3-dihydropyridazin-3-one]
< 100 nM | 65.0% | COc1cnc(COc2cnc3c(c2)CN(c2ccc(=O)n(C)n2)C3=O)c(F)c1 [Compound 12-8, 6-{3-[(3-Fluoro-5-methoxypyridin-2-yl)methoxy]-7-oxo-5H,6H,7H-pyrrolo[3,4-b]pyridin-6-yl}-2-methyl-2,3-dihydropyridazin-3-one]
< 100 nM | 16.4% | COc1ccc(COc2ccc3c(c2F)C(=O)N(c2ccc(=O)n(C)n2)C3)nc1 [Compound 12-10, 7-Fluoro-6-[(5-methoxypyridin-2-yl)methoxy]-2-(1-methyl-6-oxo-1,6-dihydropyridazin-3-yl)-2,3-dihydro-1H-isoindol-1-one]
< 100 nM | 6.6% | COc1ccc(COc2cc3c(cc2F)C(=O)N(c2ccc(=O)[nH]n2)C3)nc1 [Compound 13-1, 6-Fluoro-5-((5-methoxypyridin-2-yl)methoxy)-2-(6-oxo-1,6-dihydropyridazin-3-yl)isoindolin-1-one]
